# Measured values as given in US20260041679A1, “METHOD OF TREATING HYPERTENSION WITH THE ALDOSTERONE SYNTHASE INHIBITOR BAXDROSTAT” (CINCOR PHARMA, INC., priority 2022, published 2026).
# Test system: patients with uHTN
# Experiment: Study 124 Part 1: seated SBP in patients with uncontrolled hypertension (Example 9)
# Assay type: in vivo, human
# Parameters: key to Model-Based Least-Squares Mean Change from Baseline (SBP) / LSMEANS change from baseline (SBP) / Model-Based Least-Square Mean Change from Baseline (SBP): LS mean change from baseline in seated SBP, mmHg
# Experimental: Study 124 is a double-blind, placebo-controlled, dose range finding, multicenter study conducted in patients with uHTN receiving background antihypertensive agent(s) that are either an ACEI or an ARB, an ACEI/ARB plus a thiazide diuretic, or an ACEI/ARB plus a calcium channel blocker. The study consists of two parts: Part 1 consists of an 8-week treatment period in which the patients are to be assigned to one of 4 dose groups in equal ratio testing 0.5 mg, 1 mg, and 2 mg baxdrostat effects compared to a placebo. Patients are to administer double-blind baxdrostat tablets once per day while they continue taking the background antihypertensive medications. After 8 weeks of double-blind treatment, patients were to enter part 2 of the study unless the patient was assigned to the 2 mg group and the SBP remains ≥130 mmHg. In part 2 of the study, all patients are to cease dosing with background antihypertensive medication and take only baxdrostat 2 mg dose as a monotherapy for 4 weeks.
# Key inclusion criteria include that patients are on a stable regimen of anti-hypertensive agents for at least 8 weeks; and have a seated BP≥140 mmHg. Key exclusion criteria include a seated SBP≥180 mmHg and estimated glomerular filtration rate (eGFR)<30 mL/min/1.73 m^2.
# In this table, CI=confidence interval, DBP=diastolic blood pressure, LS=least squares, SBP=systolic blood pressure, SE=standard error. The LS means, CIs, and p-values are from an MMRM model with change from baseline as the dependent variable with randomized treatment, visit, and treatment-by-visit interaction as fixed categorical effects; along with covariates of the baseline value, race (African American versus non-African American), and the type of background antihypertensive regimen. The restricted maximum likelihood estimation (REML) approach will be used with an unstructured covariance matrix and the Kenward-Roger approximation for degrees of freedom.
# [1] = 2 mg (N = 9), mITT, Female Non-Hispanic Female Patients
# [2] = 2 mg (N = 13), mITT, Non-Hispanic Male Patients
# [3] = 2 mg (N = 16), mITT Population for Hispanic Compliant Patients
# [4] = 2 mg (N = 16), mITT, Hispanic Male Patients
# [5] = 2 mg (N = 19), mITT, Female Hispanic/Latino Patients
# [6] = Female Hispanic/Latino, mITT, 0.5 mg, Week 6
# [7] = Female Hispanic/Latino, mITT, 0.5 mg, Week 8
# [8] = Hispanic or Latino, ITT, 0.5 mg, Week 6
# [9] = Hispanic or Latino, ITT, 0.5 mg, Week 8
# [10] = Hispanic or Latino, ITT, 1 mg, Week 6
# [11] = Hispanic or Latino, ITT, 1 mg, Week 8
# [12] = Hispanic or Latino, ITT, 2 mg, Week 6
# [13] = Hispanic or Latino, ITT, 2 mg, Week 8
# [14] = Placebo (N = 8), mITT Population for Compliance for Black Patients
smiles,measurement,setting,value
"CCC(=O)N[C@@H]1CCCc2c(-c3ccc4c(c3)CCC(=O)N4C)cncc21 [baxdrostat, (R)—N-(4-(1-methyl-2-oxo-1,2,3,4-tetrahydroquinolin-6-yl)-5,6,7,8-tetrahydroisoquinolin-8-yl) propionamide]",LS Mean Change from Baseline (SE) in SBP,"1 mg, Wk 6",−13.5 (1.88) mm Hg
same,"SBP Change from Baseline to Week 8, Mean",2 mg,−19.3 mmHg
same,"SBP Change from Baseline to Week 8, Median",2 mg,−18.0 mmHg
same,"SBP at Week 8, Median",2 mg,125.0 mmHg
same,efficacy in adherent Hispanic/Latino patients,2 mg,"effective in adherent Hispanic/Latino, but efficacy response was substantially lower"
same,efficacy in the Black/African American subgroup,2 mg,effective
same,Model-Based Least-Squares Mean Change from Baseline (SBP),"2 mg (N = 9), Week 2, mITT, Female Non-Hispanic Female Patients",−15.6
same,Model-Based Least-Squares Mean Change from Baseline (SBP),"2 mg (N = 9), Week 4, mITT, Female Non-Hispanic Female Patients",−23.8
same,Model-Based Least-Squares Mean Change from Baseline (SBP),"2 mg (N = 9), Week 6, mITT, Female Non-Hispanic Female Patients",−26.1
same,Model-Based Least-Squares Mean Change from Baseline (SBP),"2 mg (N = 9), Week 8, mITT, Female Non-Hispanic Female Patients",−32.8
same,"Comp w/ Placebo at Week 6, Diff (95% CI)",[1],"−15.8 (−29.06, −2.47)"
same,"Comp w/ Placebo at Week 8, Diff (95% CI)",[1],"−19.8 (−29.87, −9.73)"
same,Model-Based Least-Squares Mean Change from Baseline (SBP),"2 mg (N = 13), Week 2, mITT, Non-Hispanic Male Patients",−16.2
same,Model-Based Least-Squares Mean Change from Baseline (SBP),"2 mg (N = 13), Week 4, mITT, Non-Hispanic Male Patients",−17.4
same,Model-Based Least-Squares Mean Change from Baseline (SBP),"2 mg (N = 13), Week 6, mITT, Non-Hispanic Male Patients",−21.5
same,Model-Based Least-Squares Mean Change from Baseline (SBP),"2 mg (N = 13), Week 8, mITT, Non-Hispanic Male Patients",−22.3
same,"Comp w/ Placebo at Week 6, Diff (95% CI)",[2],"−11.6 (−22.42, −0.83)"
same,"Comp w/ Placebo at Week 8, Diff (95% CI)",[2],"−7.4 (−18.32, 3.53)"
same,LSMEANS change from baseline (SBP),"2 mg (N = 16), Week 2, mITT Population for Hispanic Compliant Patients",−4.6
same,Model-Based Least-Squares Mean Change from Baseline (SBP),"2 mg (N = 16), Week 2, mITT, Hispanic Male Patients",−5.1
same,LSMEANS change from baseline (SBP),"2 mg (N = 16), Week 4, mITT Population for Hispanic Compliant Patients",−13.9
same,Model-Based Least-Squares Mean Change from Baseline (SBP),"2 mg (N = 16), Week 4, mITT, Hispanic Male Patients",−14.6
same,LSMEANS change from baseline (SBP),"2 mg (N = 16), Week 6, mITT Population for Hispanic Compliant Patients",−15.4
same,Model-Based Least-Squares Mean Change from Baseline (SBP),"2 mg (N = 16), Week 6, mITT, Hispanic Male Patients",−17.5
same,LSMEANS change from baseline (SBP),"2 mg (N = 16), Week 8, mITT Population for Hispanic Compliant Patients",−22.8
same,Model-Based Least-Squares Mean Change from Baseline (SBP),"2 mg (N = 16), Week 8, mITT, Hispanic Male Patients",−21.9
same,"Comp w Placebo at Week 6, Diff (95% CI)",[3],"−6.0 (−13.91, 2.00)"
same,"Comp w Placebo at Week 8, Diff (95% CI)",[3],"−6.6 (−13.07, −0.13)"
same,"Comp w/ Placebo at Week 6, Diff (95% CI)",[4],"−6.2 (−14.14, 1.67)"
same,"Comp w/ Placebo at Week 8, Diff (95% CI)",[4],"−3.2 (−9.28, 2.87)"
same,Model-Based Least-Squares Mean Change from Baseline (SBP),"2 mg (N = 19), Week 2, mITT, Female Hispanic/Latino Patients",−6.0
same,Model-Based Least-Squares Mean Change from Baseline (SBP),"2 mg (N = 19), Week 4, mITT, Female Hispanic/Latino Patients",−7.1
same,Model-Based Least-Squares Mean Change from Baseline (SBP),"2 mg (N = 19), Week 6, mITT, Female Hispanic/Latino Patients",−8.0
same,Model-Based Least-Squares Mean Change from Baseline (SBP),"2 mg (N = 19), Week 8, mITT, Female Hispanic/Latino Patients",−12.6
same,"Comp w/ Placebo at Week 6, Diff (95% CI)",[5],"−1.5 (−13.53, 10.44)"
same,"Comp w/ Placebo at Week 8, Diff (95% CI)",[5],"6.5 (−4.02, 16.98)"
same,"SBP at Week 8, Mean","2 mg QD, mITT",126.6 mmHg
same,"SBP LS mean change from baseline (SE), MMRM","2 mg, Week 8",−19.8 (1.67) mm Hg
same,SBP LS mean difference (SE) vs placebo,"2 mg, Week 8",−3.2 (2.23) mmHg
same,LS Mean Change from Baseline (SE) in SBP,"2 mg, Wk 2",−8.8 (1.65) mm Hg
same,LS Mean Change from Baseline (SE) in SBP,"2 mg, Wk 4",−13.6 (1.65) mm Hg
same,LS Mean Change from Baseline (SE) in SBP,"2 mg, Wk 6",−15.7 (1.93) mm Hg
same,Model-based LS mean change from baseline (LSMEANS),"Female Hispanic/Latino, mITT, 0.5 mg, Week 2",−6.2
same,Model-based LS mean change from baseline (LSMEANS),"Female Hispanic/Latino, mITT, 0.5 mg, Week 4",−13.4
same,"Comp w/ Placebo, Diff (95% CI)",[6],"−4.9 (−16.80, 6.97) 0.412"
same,Model-based LS mean change from baseline (LSMEANS),[6],−11.3
same,"Comp w/ Placebo, Diff (95% CI)",[7],"3.0 (−7.45, 13.46) 0.567"
same,Model-based LS mean change from baseline (LSMEANS),[7],−16.1
same,Model-based LS mean change from baseline (LSMEANS),"Hispanic or Latino, ITT, 0.5 mg, Week 2",−6.9
same,Model-based LS mean change from baseline (LSMEANS),"Hispanic or Latino, ITT, 0.5 mg, Week 4",−13.0
same,"Comp w/ Placebo, Diff (95% CI)",[8],"−4.1 (−10.84, 2.69) 0.235"
same,Model-based LS mean change from baseline (LSMEANS),[8],−13.3
same,"Comp w/ Placebo, Diff (95% CI)",[9],"−1.1 (−4.54, 6.66) 0.709"
same,Model-based LS mean change from baseline (LSMEANS),[9],−17.1
same,Model-based LS mean change from baseline (LSMEANS),"Hispanic or Latino, ITT, 1 mg, Week 2",−7.3
same,Model-based LS mean change from baseline (LSMEANS),"Hispanic or Latino, ITT, 1 mg, Week 4",−8.1
same,"Comp w/ Placebo, Diff (95% CI)",[10],"−1.4 (−8.71, 5.92)"
same,Model-based LS mean change from baseline (LSMEANS),[10],−10.6
same,"Comp w/ Placebo, Diff (95% CI)",[11],"4.0 (−2.00, 10.06)"
same,Model-based LS mean change from baseline (LSMEANS),[11],−14.1
same,Model-based LS mean change from baseline (LSMEANS),"Hispanic or Latino, ITT, 2 mg, Week 2",−5.0
same,Model-based LS mean change from baseline (LSMEANS),"Hispanic or Latino, ITT, 2 mg, Week 4",−10.1
same,"Comp w/ Placebo, Diff (95% CI)",[12],"−2.5 (−9.31, 4.24)"
same,Model-based LS mean change from baseline (LSMEANS),[12],−11.8
same,"Comp w/ Placebo, Diff (95% CI)",[13],"1.9 (−3.69, 7.44)"
same,Model-based LS mean change from baseline (LSMEANS),[13],−16.3
same,Model-Based Least-Square Mean Change from Baseline (SBP),"Placebo (N = 8), Week 2, mITT Population for Compliance for Black Patients",−7.7
same,Model-Based Least-Square Mean Change from Baseline (SBP),"Placebo (N = 8), Week 4, mITT Population for Compliance for Black Patients",−18.3
same,Model-Based Least-Square Mean Change from Baseline (SBP),"Placebo (N = 8), Week 6, mITT Population for Compliance for Black Patients",−20.6
same,Model-Based Least-Square Mean Change from Baseline (SBP),"Placebo (N = 8), Week 8, mITT Population for Compliance for Black Patients",−27.6
same,"Comp w/ Placebo at Week 6, Diff (95% CI)",[14],"−10.3 (−24.04, 3.43)"
same,"Comp w/ Placebo at Week 8, Diff (95% CI)",[14],"−13.4 (−25.04, −1.69)"
